The values below are quoted from earlier work in US12378302B2, “Fusion molecules and uses thereof” (Foundation Medicine, Inc., priority 2012, dated 2025).

The target of one data set is PI3Kγ (Homo sapiens, UniProt P48736). As to conditions: read-out: Ki PI3Kγ (p110γ).
The test system of another data set is Smad4-null cells. As to conditions: pre-clinical mouse models.
In data set [1] the test system is Vps34, AKT, PDK1, p70S6K, MEK, ERK, p38, or JNK.
A further data set relates to PDGFR. As to conditions: read-out: IC50 PDGFR.
In data set [2] the test system is cells expressing FGFR1 fusions.
Data set [3] concerns pancreatic cancer. As to conditions: Phase 2, pancreatic cancer.
Data set [4] concerns KIF5B-RET transformed cells. As to conditions: Lipson et al.
The target in a further data set is T1, ErbB4 (Homo sapiens, UniProt Q15303).
T1 construct: host or cells: glioblastoma cell lines
T1 sequence (Q15303 26-1308): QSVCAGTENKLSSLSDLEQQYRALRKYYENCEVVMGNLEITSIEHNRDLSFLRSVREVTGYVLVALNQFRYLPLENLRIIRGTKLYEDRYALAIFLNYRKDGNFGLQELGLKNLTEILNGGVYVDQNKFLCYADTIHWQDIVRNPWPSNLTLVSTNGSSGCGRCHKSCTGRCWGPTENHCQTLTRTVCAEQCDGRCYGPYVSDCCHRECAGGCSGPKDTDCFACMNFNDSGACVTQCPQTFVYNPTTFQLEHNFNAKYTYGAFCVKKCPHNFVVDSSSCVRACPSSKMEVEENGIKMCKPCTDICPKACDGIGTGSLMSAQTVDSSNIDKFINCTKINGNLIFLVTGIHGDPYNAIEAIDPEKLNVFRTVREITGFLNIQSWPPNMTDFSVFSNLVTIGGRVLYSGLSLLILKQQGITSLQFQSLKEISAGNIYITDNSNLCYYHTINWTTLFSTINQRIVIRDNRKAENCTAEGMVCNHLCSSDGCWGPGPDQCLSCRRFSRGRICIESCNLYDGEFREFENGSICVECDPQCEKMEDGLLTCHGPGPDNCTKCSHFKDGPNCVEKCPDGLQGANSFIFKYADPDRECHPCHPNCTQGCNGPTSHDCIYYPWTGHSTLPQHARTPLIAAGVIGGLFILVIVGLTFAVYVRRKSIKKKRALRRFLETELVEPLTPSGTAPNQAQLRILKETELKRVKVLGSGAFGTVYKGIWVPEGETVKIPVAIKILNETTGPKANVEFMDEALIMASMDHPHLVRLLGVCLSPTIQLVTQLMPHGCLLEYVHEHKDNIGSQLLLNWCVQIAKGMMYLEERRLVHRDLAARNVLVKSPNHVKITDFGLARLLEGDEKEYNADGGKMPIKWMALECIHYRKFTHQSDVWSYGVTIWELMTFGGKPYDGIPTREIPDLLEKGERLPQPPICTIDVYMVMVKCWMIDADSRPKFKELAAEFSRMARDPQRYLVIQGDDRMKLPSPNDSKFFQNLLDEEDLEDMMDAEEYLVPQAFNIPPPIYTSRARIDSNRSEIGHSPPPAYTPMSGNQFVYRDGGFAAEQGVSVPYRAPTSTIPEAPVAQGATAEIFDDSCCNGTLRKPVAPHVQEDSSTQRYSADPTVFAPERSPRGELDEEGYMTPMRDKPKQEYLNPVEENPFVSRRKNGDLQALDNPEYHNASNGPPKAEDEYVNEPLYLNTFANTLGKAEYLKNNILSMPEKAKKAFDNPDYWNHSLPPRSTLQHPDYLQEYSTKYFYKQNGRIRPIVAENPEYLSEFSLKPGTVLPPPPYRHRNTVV

The subject of data set [5] is pancreatic cancer. As to conditions: Phase 2, gefitinib with gemcitabine.
The target in the next data set is ErbB3 (Homo sapiens, UniProt P21860).
Sequence of ErbB3 (P21860 20-1342): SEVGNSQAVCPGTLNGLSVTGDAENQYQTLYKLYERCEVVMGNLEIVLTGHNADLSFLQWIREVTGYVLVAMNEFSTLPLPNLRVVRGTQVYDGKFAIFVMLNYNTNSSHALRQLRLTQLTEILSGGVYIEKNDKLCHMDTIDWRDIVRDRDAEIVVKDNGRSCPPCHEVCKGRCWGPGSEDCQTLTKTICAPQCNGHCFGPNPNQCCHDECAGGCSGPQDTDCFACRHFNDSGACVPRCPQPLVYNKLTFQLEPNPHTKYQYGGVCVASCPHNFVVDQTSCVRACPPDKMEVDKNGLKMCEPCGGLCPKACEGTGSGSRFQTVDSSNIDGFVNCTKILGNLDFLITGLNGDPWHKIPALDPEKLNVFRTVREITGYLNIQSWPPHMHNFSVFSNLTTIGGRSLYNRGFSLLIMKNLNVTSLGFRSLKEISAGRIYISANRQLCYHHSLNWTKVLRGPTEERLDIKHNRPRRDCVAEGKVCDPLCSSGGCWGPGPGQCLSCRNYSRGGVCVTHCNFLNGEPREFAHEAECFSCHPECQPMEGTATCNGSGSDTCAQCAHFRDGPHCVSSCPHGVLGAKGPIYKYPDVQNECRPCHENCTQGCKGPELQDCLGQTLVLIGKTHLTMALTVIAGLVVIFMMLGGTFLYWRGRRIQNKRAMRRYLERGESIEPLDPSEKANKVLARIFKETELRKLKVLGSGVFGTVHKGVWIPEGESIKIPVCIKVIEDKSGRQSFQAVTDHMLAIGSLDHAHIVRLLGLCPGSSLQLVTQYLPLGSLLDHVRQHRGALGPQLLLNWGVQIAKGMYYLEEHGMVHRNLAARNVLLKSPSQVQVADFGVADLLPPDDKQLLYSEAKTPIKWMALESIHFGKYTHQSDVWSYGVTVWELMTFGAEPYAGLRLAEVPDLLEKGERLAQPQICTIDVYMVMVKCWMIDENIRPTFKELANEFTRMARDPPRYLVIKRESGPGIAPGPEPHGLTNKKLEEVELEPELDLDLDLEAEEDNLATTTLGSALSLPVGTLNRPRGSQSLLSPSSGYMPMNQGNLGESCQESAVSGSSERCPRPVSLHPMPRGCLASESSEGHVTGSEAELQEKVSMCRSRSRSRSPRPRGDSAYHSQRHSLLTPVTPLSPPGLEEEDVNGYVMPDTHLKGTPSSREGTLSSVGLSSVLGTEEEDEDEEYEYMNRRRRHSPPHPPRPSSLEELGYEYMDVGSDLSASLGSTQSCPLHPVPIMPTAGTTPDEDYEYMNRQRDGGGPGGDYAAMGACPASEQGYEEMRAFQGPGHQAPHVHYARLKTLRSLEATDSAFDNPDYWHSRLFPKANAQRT
The test system of data set [6] is advanced non-small cell lung cancer.
The target in a further data set is inactive form of ErbB4 (Homo sapiens, UniProt Q15303). As to conditions: region conserved in all EGF family members.
Sequence of inactive form of ErbB4 (Q15303 702-1029 limits assumed): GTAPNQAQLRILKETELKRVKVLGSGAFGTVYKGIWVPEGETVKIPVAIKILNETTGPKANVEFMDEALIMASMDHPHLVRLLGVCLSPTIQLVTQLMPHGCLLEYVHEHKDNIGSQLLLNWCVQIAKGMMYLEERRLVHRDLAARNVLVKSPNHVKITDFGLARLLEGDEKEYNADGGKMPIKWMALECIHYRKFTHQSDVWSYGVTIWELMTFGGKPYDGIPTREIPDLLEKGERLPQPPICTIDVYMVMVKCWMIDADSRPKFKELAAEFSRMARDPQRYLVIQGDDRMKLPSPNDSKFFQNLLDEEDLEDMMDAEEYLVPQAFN
In data set [7] the test system is advanced urothelial cancer. As to conditions: Phase 2, single agent.
A further data set concerns advanced cervical cancer. As to conditions: Phase 2, pazopanib arm compared to lapatinib therapy.
For data set [8], the system named is early stage NSCLC patients. As to conditions: Phase 2 trial.
In data set [9] the test system is all four Fgfr kinases.
The test system of data set [10] is all four Fgfr kinases. As to conditions: preclinical studies.
The test system of data set [11] is VEGFR-stimulated cells. As to conditions: read-out: IC50 cell proliferation of VEGFR-stimulated cells.
In data set [12] the test system is EGFR-stimulated HUVEC. As to conditions: read-out: IC50 EGFR-stimulated HUVEC proliferation.
The next data set has as its system MTC. As to conditions: randomized Phase 3, vandetanib compared to placebo.
Data set [13] concerns VEGFR-stimulated cells. As to conditions: read-out: IC50 cell proliferation of VEGFR-stimulated cells. This is another data set of the same source.
For data set [14], the system named is EGFR-stimulated HUVEC. As to conditions: read-out: IC50 EGFR-stimulated HUVEC proliferation. The source holds these as a separate data set.

Like-named read-outs stand apart in the source and are kept apart here.

Sequence of PI3Kγ (P48736 whole entry): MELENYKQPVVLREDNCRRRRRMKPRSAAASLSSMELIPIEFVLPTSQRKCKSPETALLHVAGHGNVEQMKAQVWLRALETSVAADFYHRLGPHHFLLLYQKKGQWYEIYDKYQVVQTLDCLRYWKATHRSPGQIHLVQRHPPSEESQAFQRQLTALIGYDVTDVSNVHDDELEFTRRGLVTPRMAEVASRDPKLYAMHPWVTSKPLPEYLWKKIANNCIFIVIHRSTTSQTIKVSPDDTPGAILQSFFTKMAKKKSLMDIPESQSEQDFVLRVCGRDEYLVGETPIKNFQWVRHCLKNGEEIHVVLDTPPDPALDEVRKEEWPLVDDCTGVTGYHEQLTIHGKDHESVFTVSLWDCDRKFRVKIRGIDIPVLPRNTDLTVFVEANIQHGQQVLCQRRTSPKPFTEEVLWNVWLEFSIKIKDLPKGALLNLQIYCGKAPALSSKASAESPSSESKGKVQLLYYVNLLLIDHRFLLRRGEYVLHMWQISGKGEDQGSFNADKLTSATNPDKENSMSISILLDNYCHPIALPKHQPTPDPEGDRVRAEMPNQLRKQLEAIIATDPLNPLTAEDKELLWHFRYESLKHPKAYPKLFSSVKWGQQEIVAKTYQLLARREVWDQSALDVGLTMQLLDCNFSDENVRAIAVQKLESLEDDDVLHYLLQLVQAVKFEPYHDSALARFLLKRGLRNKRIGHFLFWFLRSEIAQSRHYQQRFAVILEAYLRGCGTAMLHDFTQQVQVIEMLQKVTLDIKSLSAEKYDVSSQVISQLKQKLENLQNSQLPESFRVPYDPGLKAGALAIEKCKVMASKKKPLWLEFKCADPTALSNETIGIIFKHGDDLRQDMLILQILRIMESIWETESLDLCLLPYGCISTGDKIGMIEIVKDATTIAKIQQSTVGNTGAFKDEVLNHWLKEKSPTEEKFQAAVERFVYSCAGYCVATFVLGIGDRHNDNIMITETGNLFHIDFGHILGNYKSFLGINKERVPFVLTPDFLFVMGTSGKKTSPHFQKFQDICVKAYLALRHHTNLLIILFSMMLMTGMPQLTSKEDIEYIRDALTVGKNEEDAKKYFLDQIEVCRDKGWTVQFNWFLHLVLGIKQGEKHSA

In the case of `COc1ncc(-c2ccc3nccc(-c4ccnnc4)c3c2)cc1NS(=O)(=O)c1ccc(F)cc1F` [GSK2126458, 2,4-difluoro-N-(2-methoxy-5-(4-(pyridazin-4-yl)quinolin-6-yl)pyridin-3-yl)benzenesulfonamide], the Ki – broadly, the equilibrium dissociation constant of an inhibitor or competing ligand from its target – at PI3Kγ was 0.024 nM.

For the molecule `c1ccc(-c2nn3c(c2-c2ccnc4cc(OCCN5CCOCC5)ccc24)CCC3)nc1` [LY2109761, 7-(2-morpholinoethoxy)-4-(2-(pyridin-2-yl)-5,6-dihydro-4H-pyrrolo[1,2-b]pyrazol-3-yl)quinoline], the “metastasis of Smad4-null cells” value with Smad4-null cells is recorded as “block metastasis”.

As to `COc1ccc(-c2cc3c(C)nc(N)nc3n([C@H]3CC[C@H](OCCO)CC3)c2=O)cn1` [PF-04691502, 2-amino-8-((1r,4r)-4-(2-hydroxyethoxy)cyclohexyl)-6-(6-methoxypyridin-3-yl)-4-methylpyrido[2,3-d]pyrimidin-7(8H)-one], the “activity against Vps34, AKT, PDK1, p70S6K, MEK, ERK, p38, or JNK” value in data set [1] is given as “little activity”.

With `Nc1ncnc2c1c(-c1cnc3[nH]ccc3c1)nn2C1CCCC1` [PP-121, 1-cyclopentyl-3-(1H-pyrrolo[2,3-b]pyridin-5-yl)-1H-pyrazolo[3,4-d]pyrimidin-4-amine], the IC50 in the data set with PDGFR is 2 nM.

For `Cc1nc(Nc2ncc(C(=O)Nc3c(C)cccc3Cl)s2)cc(N2CCN(CCO)CC2)n1` [dasatinib], the “sensitivity of cells expressing FGFR1 fusions” value in data set [2] is reported as “sensitivity”.

For `COc1cc2ncnc(Nc3ccc(F)c(Cl)c3)c2cc1OCCCN1CCOCC1` [gefitinib], the efficacy entry with pancreatic cancer [3] was “some efficacy”. The “sensitivity of KIF5B-RET transformed cells” value in [4] is “not”. For the same molecule, the “binding to ErbB4, preventing phosphorylation and therefore activation” value on ErbB4 is reported as “bind”. Besides, in the data set with pancreatic cancer [5], the “instances of stable disease” value is given as 12/53 and the responses is listed as 6/53. The “binding to ErbB3, preventing phosphorylation and therefore activation” value on ErbB3 is given as “bind”. In addition, in [6] (chemo-naïve patients with known EGFR mutations in their tumor), the “progression-free survival compared with combination chemotherapy” value is on record as “significant improvement in progression-free survival”. Moreover, the “survival benefit compared to placebo” value in data set [6] (patients who had progressed on first-line therapy) is given as “failed to show a survival benefit”. Besides, in the data set on glioblastoma cell lines, the Akt/Erk pathway result is “decrease” and the cell cycle entry was “cell cycle arrest”.

Regarding `CS(=O)(=O)CCNCc1ccc(-c2ccc3ncnc(Nc4ccc(OCc5cccc(F)c5)c(Cl)c4)c3c2)o1` [lapatinib], the “binding to ErbB4” value at inactive form of ErbB4 was “bind an inactive form of ErbB4”. Further, the “binding to ErbB4, preventing phosphorylation and therefore activation” value on ErbB4 is “bind”. The “binding to ErbB3, preventing phosphorylation and therefore activation” value on ErbB3 is “bind”. For the same molecule, in the data set on glioblastoma cell lines, the Akt/Erk pathway entry is given as “decrease” and the cell cycle entry is recorded as “cell cycle arrest”.

In the case of `Cc1ccc(Nc2nccc(N(C)c3ccc4c(C)n(C)nc4c3)n2)cc1S(N)(=O)=O` [pazopanib], in data set [7], the Disease control rate is 51.2%, the “Partial responses (patients/enrolled)” value is reported as 7/41 and the “Stable disease (patients/enrolled)” value is listed as 14/41. In addition, the “PFS and OS” value in the data set with advanced cervical cancer was “improved PFS and OS”. For the same molecule, the “patients who achieved partial response” value in data set [8] is given as 3 patients. Moreover, in data set [8] (30/35), the “patients who experienced a reduction in tumor volume” value is 86%.

Turning to `Cc1ccc(C(=O)Nc2ccc(CN3CCN(C)CC3)c(C(F)(F)F)c2)cc1C#Cc1cnc2cccnn12` [ponatinib], the “activity against all four Fgfr kinases” value in the data set on all four Fgfr kinases [9] and in the data set on all four Fgfr kinases [10] was “substantial activity” each time.

Take `COc1cc2c(Nc3ccc(Br)cc3F)ncnc2cc1OCC1CCN(C)CC1` [vandetanib]: the IC50 is 60 nM in the data set with VEGFR-stimulated cells [11], 170 nM with EGFR-stimulated HUVEC [12], 60 nM in the data set on VEGFR-stimulated cells [13] and 170 nM in the data set on EGFR-stimulated HUVEC [14]. Moreover, the PFS entry with MTC is “significant improvement in PFS”.
